# Laboratory results as given in US20100189707A1, “Stable Enzymatic Peracid Generating Systems” (priority 2007, published 2010).
# B1: S54V variant: M. smegmatis acyl transferase variant comprising the S54V substitution (protein)
# chain: MAKRILCFGDSLTWGWVPVEDGAPTERFAPDVRWTGVLAQQLGADFEVIEEGLVARTTNIDDPTDPRLNGASYLPSCLATHLPLDLVIIMLGTNDTKAYFRRTPLDIALGMSVLVTQVLTSAGGVGTTYPAPKVLVVSPPPLAPMPHPWFQLIFEGGEQKTTELARVYSALASFMKVPFFDAGSVISTDGVDGIHFTEANNRDLGVALAEQVRSLL
# Columns and labels:
# B. subtilis spores [1] = assay: Killing of B. subtilis spores by PAA; type: cell-based; conditions: 15 min RT
# Experimental: In this Example, experiments conducted to determine the killing curve of peracetic acid (PAA) and PAA in conjunction with detergent (commercially available PUREX® [Dial] was used in this Example) for B. subtilis spores. In these experiments, the B. subtilis spores were prepared as known in the art (See e.g., Siccardi et al., J. Bacteriol., 121:13-19 [1975]). Assays were carried out in duplicate in 96-well, round bottomed microtiter plates (Costar) with peracetic acid (32 wt % in acetic acid; Aldrich). The PAA was serially diluted in either 50 mM KPO4 buffer, pH 7.1 (“Buffer”), or in a 1:500 dilution of Purex (original formula; Dial) in the same buffer (“Buffer+Det”) in a total volume of 50 μl. The amount of PAA added to the assay was 0, 0.4, 4 or 40 mM. A volume of 5 μl of the spore suspension, containing 10^9-10^10 spores, was then added to each well and the assay incubated for 15 min at RT. Ice cold LB (150 μl) (See e.g., Sambrook et al., “Molecular Cloning: A Laboratory Manual”, Second Edition (Cold Spring Harbor), [1989]) was then added to each well, mixed, and 100 μl transferred to a fresh 96-well plate. Serial dilutions of each solution were made (in a total volume of 100 μl/well). A volume of 5 μl of each dilution was spotted onto LA plates (Sambrook et al., supra), and incubated at 37° C. for 17-24 h. Colonies were counted and the % spore killing was determined relative to the respective controls (buffer alone or buffer+detergent, without peracid). The results are presented in Table 1, as an average of duplicates from one experiment. However, the experiment was done twice in duplicate with similar results.
# B. subtilis spores [2] = assay: MsAcT system generated PAA killing of B. subtilis spores in buffer or detergent; type: cell-based; conditions: single reaction components in 400 mM KPO4 pH 7.1: 2 ppm S54V variant, 39 mM percarbonate, 100 mM PGDA
# Experimental: In this experiment, sodium percarbonate was used as the source of H2O2. The final solution contained: 100 mM 1,2-propylene glycol diacetate, 2 ppm S54V variant, 39 mM sodium percarbonate (Technical grade 85%; yielding 100 mM effective H2O2) in 320 mM KPO4 pH 7.1 in a total volume of 800 μl. This mix (yield 40 mM PAA) was serially diluted to give additional mixes that yielded 4.9, 9.9 and 20.5 mM PAA. A mix with only 400 mM KPO4 pH 7.1 was used to determine total spore counts in the absence of PAA. The mixes were allowed to incubate at room temperature for 3 min. A volume of 180 μl of each of the mixes was then dispensed into duplicate wells of a round-bottomed 96-well plate (Costar) that contained 20 μl of the spore suspension used in Example 1, to yield a total volume of 200 μl in each well. The liquid was gently pipetted 4-5 times to ensure mixing of the components. The mixes were incubated with the spores for a further 15 or 30 minutes at room temperature. At the 15 and 30 minute time points, 20 μl were removed from each of the wells, added to wells in a fresh 96-well plate and serially diluted in LB to 10^−7 in a total volume of 100 μl. A volume of 5 μl from each dilution of each spore mixture was spotted onto an LA plate, allowed to dry and then incubated overnight at 37° C. Also at the 15 and 30 min time points, an appropriate volume was removed from each well and diluted sufficiently in dH2O to yield a measurable amount of PAA using the ABTS assay on scale with a standard, as described in Example 1. The results of the spore killing are presented as an average of the duplicates.
# The experiment was repeated exactly as described except that a 1:500 dilution of Purex in 320 mM KPO4 pH 7.1, was used in place of the buffer. The results are presented in Table 3 (average of duplicates). Controls included various reaction components in 400 mM KPO4 pH 7.1 buffer: 2 ppm S54V variant, 2 ppm S54V variant with 39 mM percarbonate, 100 mM 1,2-propylene glycol diacetate, 100 mM 1,2-propylene glycol diacetate with 39 mM sodium percarbonate, 39 mM sodium percarbonate. […]
# S54V-MsAcT = assay: Enzymatic generation of PAA by S54V variant (ABTS assay); type: biochemical, M. smegmatis; conditions: for relative conversion rate to PAA for the three ester substrates: with S54V-MsAcT, same method as for PGDA
# Experimental: In these experiments, methods known in the art were used to determine the concentration of PAA (See e.g., Pinkernell et al., Analyst, 122:567-571 [1997]). In this ABTS assay, 100 μl of the solution to be analyzed was added to 1 ml of 125 mM potassium citrate buffer, pH 5.0, containing 1.0 mM 3-ethylbenzthiazoline-6-sulfonic acid (ABTS) and 50 uM KI, and allowed to incubate at RT for 3 minutes. The absorbance was measured at 420 nm in a HP 8452A Diode Array Spectrophotomer and compared to a standard curve prepared using authentic standard. The enzymatic reactions to form PAA were initiated with addition of enzyme and conducted at RT. Aliquots were withdrawn from the reactions at the indicated times and analyzed for PAA concentration. The sodium percarbonate used in these experiments was obtained from Kemira and the hydrogen peroxide was obtained from EM Science.
# A solution of 39 mM sodium percarbonate (sodium carbonate peroxyhydrate, Technical grade 85%, yielding 100 mM effective H2O2; Kemira) was prepared in 320 mM KPO4 pH 7.1. […] To compare the enzymatic production of PAA from prepared H2O2 (32 wt %, Aldrich) or H2O2 formed from percarbonate under identical pH conditions, two reactions were prepared. One reaction contained 100 mM H2O2 in 320 mM KPO4, pH 7.6, 100 mM 1,2-propylene glycol diacetate (Aldrich), and 2 ppm variant S54V. The absolute concentration of H2O2 was assumed from the value stated on the label and not confirmed by analysis. The second reaction contained 39 mM sodium percarbonate in 320 mM KPO4, pH 7.1, 100 mM 1,2-propylene glycol diacetate, and 2 ppm S54V. The reactions were initiated by the addition of the enzyme. Samples were withdrawn at the times indicated and the concentration of PAA determined as described in Example 1.
# In order to study the use of different propyl alcohol acetate ester substrates, the generation of PAA was carried out using the same general method described above for PGDA, but using either propyl acetate or triacetin as the ester substrate. […]
# In this Example, experiments to assess the amount of peracetic acid produced from glucose and propyleneglycol diacetate are described. […] Further samples were withdrawn at the times indicated in FIG. 2, and the concentration of PAA determined as described above. No PAA was detected before the addition of enzyme and approximately 9.5 mM PAA was produced from the 20 mM 1,2-propylene glycol diacetate and the H2O2 produced from the glucose/glucose oxidase reaction.
# In these experiments, three reactions were prepared, consisting of 320 mM KPO4 pH 7.1, 100 mM 1,2-propylene glycol diacetate (Aldrich), and 100 mM sodium percarbonate. […] Samples were withdrawn at the times indicated in the Figure, and the concentration of PAA determined as described above.
molecule,measurement,setting,value
"CC(=O)OO [PAA, peracetic acid]",% Spore Killing,"B. subtilis spores [1]; Buffer + Detergent, 0.4 mM PAA",0.05%
same,Spores/ml,"B. subtilis spores [1]; Buffer + Detergent, 0.4 mM PAA",1.7 × 10^9 Spores/ml
same,% Spore Killing,"B. subtilis spores [1]; Buffer + Detergent, 4 mM PAA",86.4%
same,Spores/ml,"B. subtilis spores [1]; Buffer + Detergent, 4 mM PAA",2.4 × 10^8 Spores/ml
same,% Spore Killing,"B. subtilis spores [1]; Buffer + Detergent, 40 mM PAA",100%
same,Spores/ml,"B. subtilis spores [1]; Buffer + Detergent, 40 mM PAA",0 Spores/ml
same,% Spore Killing,"B. subtilis spores [1]; Buffer, 0.4 mM PAA",86.4%
same,Spores/ml,"B. subtilis spores [1]; Buffer, 0.4 mM PAA",2.4 × 10^8 Spores/ml
same,% Spore Killing,"B. subtilis spores [1]; Buffer, 4 mM PAA",90%
same,Spores/ml,"B. subtilis spores [1]; Buffer, 4 mM PAA",1.6 × 10^8 Spores/ml
same,% Spore Killing,"B. subtilis spores [1]; Buffer, 40 mM PAA",100%
same,Spores/ml,"B. subtilis spores [1]; Buffer, 40 mM PAA",0 Spores/ml
"CC(=O)OCC(C)OC(C)=O (stereo not shown) [PGDA, 1,2-propylene glycol diacetate]",spores/ml after a 30 min incubation,B. subtilis spores [2],5×10^9 spores/ml
same,relative conversion rate to PAA for the three ester substrates,S54V-MsAcT,PGDA >triacetin >propyl acetate
CCCOC(C)=O [propyl acetate],relative conversion rate to PAA for the three ester substrates,S54V-MsAcT,PGDA >triacetin >propyl acetate
O=C([O-])[O-].O=C([O-])[O-].OO.OO.OO.[Na+].[Na+].[Na+].[Na+] [sodium percarbonate],spores/ml after a 30 min incubation,B. subtilis spores [2],1×10^9 spores/ml
B1,spores/ml after a 30 min incubation,B. subtilis spores [2],5×10^9 spores/ml
same,PAA produced,"S54V-MsAcT; 20 mM 1,2-propylene glycol diacetate, H2O2 from glucose/glucose oxidase, 2 ppm S54V variant, RT",approximately 9.5 mM
same,temperature up to which the enzyme system is functional,"S54V-MsAcT; 2 ppm S54V variant, 100 mM PGDA, 100 mM sodium percarbonate, 21, 40, 60° C.",≥ 60 °C
